The values below are quoted from earlier work in patent publication US20050271657A1, “Intermittent treatment regime for organ failure” (Australian Stem Cell Centre Ltd., priority 2004, published 2005).

Structures are written as SMILES.

Series [1] has as its system A II production from angiotensin I (A I).
The conditions of series [2]: renal transplant patients.

On to `CCOC(=O)[C@H](CCc1ccccc1)N[C@@H](C)C(=O)N1CCC[C@H]1C(=O)O` [Enalapril, enalapril], for which, in series [1], the “blockage of A II production from angiotensin I at specific glomerular sites” value is “blockage”. In addition, in series [2], the anemia result is given as “reversible anemia”.
